These are literature values, as cited in patent US4829051A, “N-substituted derivatives of 1-desaminovasopressin” (Vega Laboratories, Inc., priority 1984, dated 1989).

Molecules are shown by their SMILES.

The conditions of the data set: in vivo.

On to `NC(=O)CC[C@@H]1NC(=O)[C@H](Cc2ccccc2)NC(=O)[C@H](Cc2ccc(O)cc2)NC(=O)CCSSC[C@@H](C(=O)N2CCC[C@H]2C(=O)N[C@H](CCCN=C(N)N)C(=O)NCC(N)=O)NC(=O)[C@H](CC(N)=O)NC1=O` [desmopressin], for which the Antidiuretic activity result is “enhanced and prolonged antidiuretic activity”; the Pressor activity result is reported as “low pressor activity”.
